Laboratory results: patent US11685711B2, “Carbon monoxide-releasing molecules triggered by physiological stimuli” (Georgia State University Research Foundation, Inc., priority 2017, dated 2023)
Like-named read-outs stand apart in the source and are kept apart here.

What was measured:
[1] = system: Hela cells; assay: Crystal violet assay, co-treatment with doxorubicin; details: 24 h; for synergistic effects with Dox in killing Hela cells: co-treatment with Dox
Method: (§2) Towards this end, Hela cells and H9C2 cells were co-treated with 11/12 and Dox for 24 h. Then the cells were subjected to crystal violet assay for cytotoxicity evaluation. The cells treated with 11/12, or Dox only were used as controls. Additionally, the cells co-treated with Dox and compound 10a/11a/11b were employed as additional controls as well.
(§3) Hela cells and H9C2 cells were seeded in 96-well plates and cultured in DMEM supplemented with 10% FBS and 1% penicillin/streptomycin at 37° C. under 5% CO2 for 24 h. The cells were either incubated with doxorubicin (1% DMSO DMEM solution, 0 to 4 μM) or a mixture of doxorubicin and indicated compounds (1% DMSO DMEM solution, 0 to 4 μM for doxorubicin) for 24 h. After removal of the medium, the plate was washed with 150 μL/well of PBS and the cell was fixed with 4% paraformaldehyde for 1 h at room temperature. The solution in the well was then removed and 100 μL of 0.5% crystal violet staining solution was added to each well. After incubation for 15 min at room temperature, the plate was washed with 200 μL of DI water for each well twice, followed by the addition of 100 μL/well of acetic acid solution (33%) to dissolve the dye. Absorbance at 615 nm was then measured by using a Perkin Elmer 1420 multi-label counter. Cell viability was measured and the results were normalized to the vehicle group. The experiment was triplicated and the results are expressed as mean±SD (n=3).

[2] = system: Raw 264.7 cells; assay: Cytotoxicity against Raw 264.7 cells (Cell Counting Kit-8); type: cell-based; details: concentrations up to 50 μM, 24 h of incubation
Method: All CO prodrugs were initially screened for their cytotoxicity against Raw 264.7 cells. […] Then RAW 264.7 cells were incubated in DMEM containing 1% DMSO and compounds (0-50 μM) for 24 hours. Then 10 μL of Cell Counting Kit-8 solution was added to each well and incubated for another three hours at 37° C. The absorbance at […] was measured by using a microplate reader.

[3] = physchem; type: physicochemical
Method: A solution of 10/11 (20 μM) and NaClO (40 or 60 μM) in 10% of ACN in PBS (pH=7.4) was sealed and incubated at 37° C. At each defined time point, 500 μL of the reaction mixture was taken out and added into a vial containing Na2SO3 (100 μL, 250 mM) to quench the reaction. The resulting solution was then analyzed by HPLC (column: Waters C18 3.5 μM, 4.6×100 mm, injection loop volume: 20 μL). CO release was determined by monitoring the formation of the product and the consumption of the reaction intermediate as in the case of 10 or prodrug 11. The mobile phase was acetonitrile ACN/H2O (containing 0.05% trifluoroacetic acid).

[4] = system: porcine liver esterase; assay: CO release kinetics in the presence of porcine liver esterase (HPLC); type: in vitro ADME
Method: […] At each defined time point, 250 μL of the reaction mixture was taken out and added into a vial containing 500 μL ethanol. The mixture was incubated in an acetone dry ice bath (−78° C.) for 5 min, and centrifuged for 9 min (14.5×1000 rp) to precipitate the esterase out. The resulting supernatant was then analyzed by HPLC (column: Waters C18 3.5 μM, 4.6×100 mm, injection loop volume: 20 μL). […] The mobile phase was acetonitrile CH3CN/H2O (containing 0.05% trifluoroacetic acid).

[5] = system: Hela cells
Method: as §2, §3

[6] = Sensitivity of 11 to various ROS (HPLC, formation of 11a); type: physicochemical
Method: The CO release profiles in the absence/presence of ROS was studied using HPLC to monitor the consumption of 10/11 and the formation of 10a/11a. Various ROS solutions were prepared according to literature procedures. A solution of 11 (400 μL, 1 mM in acetonitrile (ACN) was added to 20 mL of PBS (pH 7.4, 10 mM). […] Additional ACN was added to make the final solution contain 10% of ACN. The resulting mixture was incubated at 37° C. for 30 min. CO release was monitored by the formation of 11a using HPLC. The experiment was triplicated, and the results are reported as mean±SD (n=3).

[7] = system: H9C2 cells; assay: Crystal violet assay, co-treatment with doxorubicin and cytotoxicity; type: cell-based
Method: as §2
Hela cells and H9C2 cells were seeded in 96-well plates and cultured in DMEM supplemented with 10% FBS and 1% penicillin/streptomycin at 37° C. under 5% CO2 for 24 h. The cells were either incubated with doxorubicin (1% DMSO DMEM solution, 0 to 4 μM) or a mixture of doxorubicin and indicated compounds (1% DMSO DMEM solution, 0 to 4 μM for doxorubicin) for 24 h. After removal of the medium, the plate was washed with 150 μL/well of PBS and the cell was fixed with 4% paraformaldehyde for 1 h at room temperature. The solution in the well was then removed and 100 μL of 0.5% crystal violet staining solution was added to each well. […] Absorbance at 615 nm was then measured by using a Perkin Elmer 1420 multi-label counter. Cell viability was measured and the results were normalized to the vehicle group. The experiment was triplicated and the results are expressed as mean±SD (n=3).

[8] = system: Hela cells; assay: Fluorescent imaging of CO release of 11 with COP-1; type: cell-based; details: 11 50 μM + COP-1 1 μM, 5 hours
Method: (§1) Hela or H9C2 cells were seeded in 6-well plates one day before the imaging experiment. Compound 11 was dissolved in DMSO as stock solution. Final concentrations of 1 μM for COP-1 and […] were added into the cell culture. The sample without 11 was used as the negative control. After adding the compound, the cells were incubated at 37° C. for 5 hours. The cells were then fixed and taken for fluorescent images under the FITC channel (excitation: 490 nm, emission: 525 nm) using a Zeiss fluorescent microscope.

[9] = system: H9C2 cells; assay: Fluorescent imaging of CO release of 11 with COP-1; type: cell-based; details: 11 50 μM + COP-1 1 μM
Method: as §1

[10] = system: Raw264.7 cells; assay: Fluorescent imaging of CO release of 11 with COP-1, with or without LPS; type: cell-based; details: Raw 264.7 cells, 11 50 μM + COP-1 1 μM + LPS 1 μg/mL, 5 hours
Method: For imaging studies of 11 in transformed macrophage cells, RAW 264.7 cells were seeded in 6-well plates one day before the imaging experiment. Compounds were dissolved in DMSO as stock solution. Final concentration of 1 μM COP-1, 50 μM of 11 and 1 μg/mL of LPS were added into the cell culture. The cells without 11 was used as the negative control. After adding the compound, the cells were incubated at 37° C. for 5 hours. The cells were then fixed and taken for fluorescent images under the FITC channel (excitation: 490 nm, emission: 525 nm) using a Zeiss fluorescent microscope.

[11] = Stability in the absence of ROS (HPLC); type: physicochemical
Method: Initially, 11 was employed to screen its sensitivity towards various ROS. […] The stability was tested by adding a solution of 11/12 (800 μL, 500 μM in acetonitrile) was added to 20 mL of PBS (pH 7.4, 10 mM) in a vial. Additional acetonitrile was added to make the final concentration of ACN 10% for all solutions. The resulting solution was incubated at 37° C. for 48 h. The solution was then analyzed using HPLC. All the experiments were triplicated, and the results are reported as mean±SD (n=3).

[12] = CO release kinetics of 38 with or without H2O2 (HPLC); type: physicochemical; details: 20% of DMSO/PBS, 37° C., read-out: beta-elimination half-life (converted)
Method: Solutions of 38 (20 μM) in 20% of DMSO/PB S was incubated with or without H2O2 (270 μM) at 37° C. Aliquots were taken for HPLC analysis to determine CO release kinetics by monitoring the formation of compound 25. HPLC was conducted using a Waters C18 column (3.5 LM, 4.6x 100 mm) equipped with a 20-μL injection loop and acetonitrile:water (85:15) as the mobile phase.

For `COC(=O)C1([Se]c2ccccc2)CC2(C)CC1(C)C(c1ccccc1)=C2c1ccccc1` (stereo not drawn) [Compound 11b, methyl 1,4-dimethyl-5,6-diphenyl-2-(phenylselanyl)bicyclo-[2.2.1]hept-5-ene-2-carboxylate, reference compound], the “synergistic effects with Dox in killing Hela cells” value ([1]; Hela cells) was “no synergistic effects were observed”.
For `C[C@@]12C(=O)[C@](C)(C(c3ccccc3)=C1c1ccccc1)C(S(=O)(=O)c1ccccc1)C2C=O` (stereo partly drawn) [Compound 7, (1S,4S)-1,4-dimethyl-7-oxo-5,6-diphenyl-3-(phenylsulfonyl)bicyclo-[2.2.1]hept-5-ene-2-carbaldehyde], the “cytotoxicity (cell viability)” value [2] was “no cytotoxicity was observed”.
For `CC12CC([Se]c3ccccc3)C(C)(C1=O)C(c1ccccc1)=C2c1ccccc1` (stereo not drawn) [Compound 10, 1,4-dimethyl-2,3-diphenyl-5-(phenylselanyl)bicyclo[2.2.1]hept-2-en-7-one], the “half-life of selenoxide elimination / CO release” value ([3]; 20 µM, pH 7.4) was “around 4 h” and the “time to finish the oxidation step” value ([3]; initial hypochlorite concentration of 40 μM, 37° C.) was 30 s.
For `COc1cccc2c1C(=O)c1c(O)c3c(c(O)c1C2=O)C[C@@](O)(C(=O)CO)C[C@@H]3O[C@H]1C[C@H](N)[C@H](O)[C@H](C)O1` [Dox, doxorubicin, reference compound], the viability at 2 µM ([1]; Homo sapiens, HeLa, read-out: cell viability) was about 80%.
With `CC(C)(C)C(=O)OC(OC(=O)C(C)(C)C)C1C(S(=O)(=O)c2ccccc2)[C@]2(C)C(=O)[C@]1(C)C(c1ccccc1)=C2c1ccccc1` (stereo partly drawn) [Compound 24d, ((1S,4S)-1,4-Dimethyl-7-oxo-5,6-diphenyl-3-(phenylsulfonyl)bicyclo [2.2.1]hept-5-en-2-yl)methylene bis(2,2-dimethylpropanoate)] the esterase-mediated hydrolysis ([4]; in the presence of PLE, after 24 h of incubation) was “no hydrolysis was observed”.
In the case of `COC(=O)C1([Se]c2ccccc2)CC2(C)C(=O)C1(C)C(c1ccccc1)=C2c1ccccc1` (stereo not drawn) [Compound 11, Methyl-1,4-dimethyl-7-oxo-5,6-diphenyl-2-(phenylselanyl)bicyclo[2.2.1]hept-5-ene-2-carboxylate], the “synergistic effects with Dox in killing Hela cells” value ([1]; Hela cells) is reported as “synergistically”, the “cell viability, compound only” value [5] is reported as “no decrease in cell viability was observed” and the “transformation within 30 min” value ([6]; hydrogen peroxide (H2O2, 1 mM), 37° C.) is reported as “less than 5%”. For the same compound, the “transformation within 30 min” value ([6]; hydroxyl radical (HO., 500 μM), 37° C.) was “less than 5%”, the “time to complete transformation from 11 to 11a” value ([6]; hypochlorite (40 μM) at 37° C.) was 30 min and the “sensitivity towards ROS” value ([6]; hypochlorite (ClO−), singlet oxygen (1O2) and O2−, 37° C.) was “very sensitive”. The “transformation within 30 min” value ([6]; tert-butoxy radical (tBuO·, 500 μM), 37° C.) was “less than 5%”, the “transformation within 30 min” value ([6]; tert-butyl hydroperoxide (TBHP, 500 μM), 37° C.) was “less than 5%” and the half-life at 20 µM ([3]; pH 7.4) was about 30 s. The “synergistic effects with Dox in killing H9C2 cells” value ([7]; H9C2 cells, co-treatment with Dox, 24 h) was “no synergistic effects were observed”, the “intracellular CO release (green fluorescence) compared with H9C2 cells” value [8] was “much enhanced green fluorescence” and the “intracellular CO release” value [9] was “negligible CO release”. The “intracellular CO release (green fluorescence) with LPS vs without LPS” value [10] was “significantly enhanced green fluorescence” and the “formation of 11a” value ([11]; absence of hypochlorite, 48 h of incubation) was “no formation of 11a was observed”.
In the case of `Cc1ccc(C)c(-c2ccccc2)c1-c1ccccc1` [Compound 10a, 3′,6′-Dimethyl-1,1′:2′,1″-terphenyl], the “synergistic effects with Dox in killing Hela cells” value ([1]; Hela cells) is reported as “no synergistic effects were observed”.
Work on `CCCCCSC1C(C=O)C2(C)C(=O)C1(C)C(c1ccccc1)=C2c1ccccc1` (stereo not drawn) [Compound 38] yielded a half-life at 20 µM ([12]; 20% DMSO in PBS with H2O2 (270 µM), H2O2 (270 μM)) of about 1.5 h and a half-life at 20 µM ([12]; 20% DMSO in PBS, without H2O2) of about 24 h.
For `CC12CC([Se]c3ccccc3)(C(=O)NCCC[P+](c3ccccc3)(c3ccccc3)c3ccccc3)C(C)(C1=O)C(c1ccccc1)=C2c1ccccc1` (stereo not drawn) [Compound 12, (3-(1,4-dimethyl-7-oxo-5,6-diphenyl-2-(phenylselanyl)bicyclo [2.2.1]hept-5-ene-2-carboxamido)propyl)triphenylphosphonium], the cell viability ([1]; Hela cells, 2 μM Dox in combination with 12 (2.5 μM)) was “around 20%”, the “synergistic effects with Dox in killing Hela cells” value ([1]; Hela cells) was “synergistically” and the “cell viability, compound only” value ([1]; Hela cells, without Dox (0-μM group)) was “no decrease in cell viability was observed”. The “cytotoxicity against H9C2 cells” value ([7]; 5 μM, 24 h of incubation) was “showed toxicity” and the “stability in the absence of ROS” value ([11]; 10% ACN in PBS (pH 7.4), 37° C., 48 hours) was “very stable”.
With `COC(=O)c1cc(C)c(-c2ccccc2)c(-c2ccccc2)c1C` [Compound 11a, Methyl 3′,6′-dimethyl-[1,1′:2′,1″-terphenyl]-4′-carboxylate] the “synergistic effects with Dox in killing Hela cells” value ([1]; Hela cells) was “no synergistic effects were observed”.
For `CC(=O)OC(OC(C)=O)C1C(S(=O)(=O)c2ccccc2)[C@]2(C)C(=O)[C@]1(C)C(c1ccccc1)=C2c1ccccc1` (stereo partly drawn) [Compound 24a, ((1S,4S)-1,4-Dimethyl-7-oxo-5,6-diphenyl-3-(phenylsulfonyl)bicyclo [2.2.1]hept-5-en-2-yl)methylene diacetate], the “time to total consumption of prodrug (to form compound 23)” value ([4]; porcine liver esterase (3 U/mL), 5% of DMSO in PBS (pH 7.4), 37° C.) was at most 2 min.
